Reference: patent publication US20230087994A1, “TARGETED BIFUNCTIONAL DEGRADERS” (YALE UNIVERSITY, priority 2019, published 2023)

How the values were obtained:
PC3 cells = assay: Human prostate cancer PC3 tumor growth in mice; format: in vivo
Experimental: The ability of MIF-GN3 to mediate the depletion of MIF in a therapeutically relevant disease model was investigated. […] An experiment was conducted to determine whether the bifunctional molecule MIF-GN3 can deplete sufficient human MIF from serum to slow PC3 tumor growth. Mice were injected with an aliquot of PC3 cells, and the size of the resultant tumors as well as the levels of human MIF in serum were monitored over five weeks. […] Five weeks after the initial PC3 cell injection, the first of the mice reached maximal tumor size ([…]) and was sacrificed (FIG. 138). […] The decrease in human MIF levels mediated by MIF-GN3 is consistent with a mechanism of action in which MIF-GN3 mediates the depletion and degradation of circulating MIF protein. While the α-MIF antibody would not necessarily be expected to decrease the levels of human MIF, it is possible that the antibody mediates MIF neutralization in a manner which masks its signal as determined by ELISA. Alternatively, the α-MIF antibody may mediate depletion or degradation of huMIF by some endocytic mechanism. Another possible explanation is that the α-MIF antibody decrease serum levels of active human MIF to such an extent at early time points that PC3 cells proliferate much more slowly, and therefore fewer cells are actively secreting human MIF.
Mice were sacrificed when their tumor volumes reached 1000 mm^3. […] At this same time point, less than 25% of the mice in any other arm had survived.

mouse MIF = molecular target: T1, mouse MIF (Mus musculus, UniProt P34884); assay: Depletion of endogenous mouse MIF in vivo; design: species or system mice; settings: 10 mpk, single dose; FIG. 137
T1 construct: mediate the depletion of endogenous mouse MIF in vivo; from tissue; host or cells: mouse serum (in vivo)
Experimental: (§1) In order to confirm that mice injected with one or ten mpk MIF-GN3 had received the injection, and that the observed stability of MIF concentrations in MIF-GN3 treated mice was not the result of injection error, 200 μg of α-DNP antibody was coinjected with the MIF protein in this experiment. […] An investigation of the ability of MIF-GN3 to mediate the depletion of endogenous mouse MIF in vivo was next undertaken. Mice were treated with either PBS or 10 mpk of MIF-GN3. […] One possible explanation for this finding is that MIF protein may be synthesized rapidly, and any increase in degradation mediated by MIF-GN3 may not be of a large enough magnitude to impact the protein's level in serum.

human MIF [1] = molecular target: T2, human MIF (Homo sapiens, UniProt P14174); assay: Depletion of injected recombinant human MIF from serum in mice; format: in vivo; design: injected into mice; settings: for depletion of human MIF protein from serum: 10 mpk, 30 minutes, FIG. 135
T2 sequence (P14174 2-115 limits assumed): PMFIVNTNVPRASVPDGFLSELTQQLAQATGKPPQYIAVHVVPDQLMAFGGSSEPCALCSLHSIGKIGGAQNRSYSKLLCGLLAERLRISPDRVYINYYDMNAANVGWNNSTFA
Experimental: In vivo human MIF depletion experiments were undertaken to determine whether MIF-GN3 can mediate the depletion of injected recombinant human MIF from serum in mice. Mice were injected with five μg of the human MIF protein. In this experiment, one group of mice was also injected with a single 10 mpk dose of MIF-GN3 along with human MIF protein. It was observed that after four hours, the average level of human MIF in serum in the PBS-treated mice was 1.76 ng/mL (FIG. 134). In mice treated with 10 mpk MIF-GN3, however, the concentration of human MIF in serum was 0.68 ng/mL. One day after the initial injection, human MIF levels had reached background levels for both conditions. […] It was hypothesized that, due to the short half-life of human MIF in serum, investigating human MIF levels at earlier time points may be more informative.
Next, an experiment was performed to determine whether MIF-GN3 could enhance MIF clearance at time points earlier than four hours. Mice were coinjected with recombinant human MIF and 10 mpk MIF-GN3 via either i.p. or i.v. routes. For the PBS control arms, human MIF was injected with PBS. It was observed that in the absence of MIF-GN3, there was a spike in huMIF levels in circulation after 30 minutes (FIG. 135). In the presence of MIF-GN3, however, levels of MIF protein remained low at 30 minutes and no spike in its concentration was observed. By two hours, the levels of human MIF in circulation decreased to background levels. […] In a further experiment, whether an inhibitor of the MIF protein (3w) is able to mediate the protein's depletion from serum was determined. A bifunctional molecule that mediates the depletion of α-DNP antibody from serum was also assayed as a negative control. Neither of these molecules was expected to mediate the formation of a ternary complex between human MIF protein and ASGPR.
as §1

[2] = Pharmacokinetics of MIF-GN3 in male nude mice; format: in vivo; settings: one mpk dose
Excerpt: The ability of MIF-GN3 to mediate the depletion of injected human MIF from serum in mice was studied. First, the pharmacokinetics of the bifunctional molecule were investigated.

HepG2 cells [3] = assay: Subcellular localization of endocytosed MIF protein in HepG2 cells; format: cell-based, human; settings: 12 hours; FIG. 133
Experimental: In order to investigate the subcellular localization of endocytosed MIF protein, colocalization studies were performed in HepG2 cells. After 12 hours of MIF-GN mediated endocytosis, several punctae displaying MIF-derived fluorescence were present in each cell.

HepG2 cells [4] = assay: MIF-GN3-mediated endocytosis of fluorescently labeled human MIF by HepG2 cells
Experimental: Human MIF protein was fluorescently labeled with Alexa 488 NHS ester, then incubated with HepG2 cells in the presence of varying levels of MIF-GN3.
Next, inhibitors of various endocytic pathways were utilized to determine if MIF-GN3 mediates MIF endocytosis in a manner consistent with ASGPR (FIG. 132).

human MIF [5] = molecular target: T2, human MIF; assay: Depletion of human MIF from cell culture supernatant (sandwich ELISA); format: cell-based; design: host or cells: exogenous protein added to cell culture; settings: for removal of MIF from supernatant: after 48 hours
Experimental: The ability of bifunctional MIF-binding molecules to mediate the depletion of human MIF from cell culture was investigated. In these assays, human MIF was present at a concentration of 100 nM, and a sandwich ELISA assay was utilized to measure the concentration of human MIF remaining in the cell culture supernatant. The closely related bifunctional molecules MIF-GN3, MIF-PEG2-GN3, and MIF-PEG4-GN3 were used, as well as the structurally dissimilar molecule MIF-NVS-PEG3-GN3. […] Based on the ease of its synthesis and its efficacy in this experiment, MIF-GN3 was utilized for further studies. It was next investigated whether the MIF inhibitor 3w mediates MIF depletion from cell culture supernatant. […] When cells were treated with 3w, no depletion of exogenous MIF protein was observed after 24 hours (FIG. 128B).

## CC(=O)N[C@H]1[C@H](OCCOCCOCCNC(=O)CCOCC(COCCC(=O)NCCOCCOCCO[C@@H]2O[C@H](CO)[C@H](O)[C@H](O)[C@H]2NC(C)=O)(COCCC(=O)NCCOCCOCCO[C@@H]2O[C@H](CO)[C@H](O)[C@H](O)[C@H]2NC(C)=O)NC(=O)CNC(=O)CCCOc2ccc3nc(-c4cn(-c5ccc(O)c(F)c5)nn4)ccc3c2)O[C@H](CO)[C@H](O)[C@@H]1O [MIF-GN3]
PC3 cells; 1 mpk
  PC3 tumor growth: delay in tumor growth
PC3 cells; 10 mpk
  PC3 tumor growth: not found to decrease tumor growth
PC3 cells; MIF-GN3 at 1 mpk, FIG. 139
  human MIF protein in serum: decreased levels of human MIF protein
PC3 cells; eight weeks after the initial PC3 cell injection, MIF-GN3 at 1 mpk, FIG. 140
  survival: 80%
Mouse MIF
  mouse MIF concentrations in serum: No significant decrease
Human MIF [1]; i.p.
  depletion of human MIF protein from serum: significant depletion
Human MIF [1]; i.v.
  depletion of human MIF protein from serum: significant depletion
Human MIF [1]; four hours, single 10 mpk dose, five μg human MIF (PBS 1.76 ng/mL; difference not significant), FIG. 134
  concentration of human MIF in serum: 0.68 ng/mL
Human MIF [1]; one mpk, 40 and 60 minute time points, FIG. 136
  human MIF levels in serum: significant decrease
Human MIF [1]; ten mpk, 40 and 60 minutes, FIG. 136
  concentration of human MIF in serum: significant decreses
[2]
  half-life in serum: 25.8 min
  maximum plasma concentration: 586.87 ng/mL
  time of maximum plasma concentration: 15 min
HepG2 cells [3]
  colocalization of MIF protein with LAMP2: near-complete colocalization
  overlap of MIF punctae with EEA1: did not overlap
HepG2 cells [4]; 10 nM MIF protein, 200 nM MIF-GN3, FIG. 131
  fluorescence relative to cells not treated with bifunctional molecule: 4 fold
HepG2 cells [4]; 5.00 μM MIF-GN3, 100 nM MIF protein
  MIF uptake compared to lower concentrations: slight decrease in MIF uptake
HepG2 cells [4]; highest concentration investigated, FIG. 130
  MIF-GN3 concentration of maximal intracellular fluorescence: 1.0 µM
Human MIF [5]; 200 nM
  removal of MIF from supernatant: 56.0%
Human MIF [5]; 1 μM
  removal of MIF from supernatant: 67.0%
Human MIF [5]; human MIF 100 nM, 24 hours, FIG. 128A
  depletion of human MIF from cell culture supernatant: effective at mediating the depletion of human MIF
